# According to patent US7160908B2, “Dynamic anticancer platinum compounds” (Unitech Pharmaceuticals, Inc., priority 2003, dated 2007):
# Columns and labels:
# [1] = tested on: Ovary, OVCAR-3 Tumor Cell; test: Anti-proliferative activity, alamarBlue cell viability, OVCAR-3; format: cell-based, human; conditions: for Percent Growth (Mean of 2): 72-hour incubation, vehicle = 100
# Experimental: (§1) UTD-4-A was dissolved in 100% DMSO and then diluted with sterile distilled water to obtain initial working solutions of […] in 40% DMSO. A 100-fold dilution was further made in culture media to generate final assay concentrations of […] in 0.4% DMSO.
# (§2) Aliquots of […] of cell suspension (about 2.5×10^3/well) were placed in 96-well microtiter plates in an atmosphere of 5% CO2 at 37° C. After 24 hours, […] of growth medium and […] of test solution or vehicle (40% DMSO) were added respectively per well in duplicate for an additional 72-hour incubation.
# (§3) Thus, the final concentration of DMSO was 0.4%. The test compound, UTD-4-A, was evaluated at concentrations of […]. At the end of incubation, […] of 90% alamarBlue reagent was added to each well for another 6-hour incubation before detection of cell viability by fluorescent intensity. Fluorescent intensity was measured using a Spectraflour Plus plate reader with excitation at 530 nm and emission at 590 nm.
# [2] = tested on: Colon, HT-29 Tumor Cells; test: Anti-proliferative activity, alamarBlue cell viability, HT-29; format: cell-based, human; conditions: for Percent Growth (Mean of 2): 72-hour incubation, vehicle = 100
# Experimental: as §1, §2, §3
# [3] = concentrations between 10 and 100 μM
substance,measurement,setting,value
cis-[Pt(NH3)(NH2—CHCH3—CO—O)]Cl [UTD-4-A],Percent Growth (Mean of 2),[1]; 1 μM,100 ± 6
same,Percent Growth (Mean of 2),[1]; 10 μM,85 ± 3
same,Percent Growth (Mean of 2),[1]; 100 μM,30 ± 3
same,growth inhibition relative to the vehicle-treated control,[1]; [3],significant growth inhibition
same,Percent Growth (Mean of 2),[2]; 1 μM,100 ± 6
same,Percent Growth (Mean of 2),[2]; 10 μM,95 ± 8
same,Percent Growth (Mean of 2),[2]; 100 μM,41 ± 4
same,growth inhibition relative to the vehicle-treated control,[2]; [3],significant growth inhibition
